Measured values taken from PMC7642415, “Perturbed structural dynamics underlie inhibition and altered efflux of the multidrug resistance pump AcrB” (Nature Communications, 2020).
Where a SMILES comes first, the peptide text is derived from it.

Key:
AcrB [1] = target: T1, AcrB (Escherichia coli, UniProt P31224); experiment: differential HDX-MS on purified AcrB WT; assay type: binding
T1 construct: full-length AcrB with C-terminal 6xHis tag, in DDM micelles

AcrB [2] = target: T2, AcrB (Escherichia coli, UniProt P31224, G288D); assay type: binding
T2 construct: full-length AcrB with C-terminal 6xHis tag, in DDM micelles
T2 sequence (P31224 whole entry G288D): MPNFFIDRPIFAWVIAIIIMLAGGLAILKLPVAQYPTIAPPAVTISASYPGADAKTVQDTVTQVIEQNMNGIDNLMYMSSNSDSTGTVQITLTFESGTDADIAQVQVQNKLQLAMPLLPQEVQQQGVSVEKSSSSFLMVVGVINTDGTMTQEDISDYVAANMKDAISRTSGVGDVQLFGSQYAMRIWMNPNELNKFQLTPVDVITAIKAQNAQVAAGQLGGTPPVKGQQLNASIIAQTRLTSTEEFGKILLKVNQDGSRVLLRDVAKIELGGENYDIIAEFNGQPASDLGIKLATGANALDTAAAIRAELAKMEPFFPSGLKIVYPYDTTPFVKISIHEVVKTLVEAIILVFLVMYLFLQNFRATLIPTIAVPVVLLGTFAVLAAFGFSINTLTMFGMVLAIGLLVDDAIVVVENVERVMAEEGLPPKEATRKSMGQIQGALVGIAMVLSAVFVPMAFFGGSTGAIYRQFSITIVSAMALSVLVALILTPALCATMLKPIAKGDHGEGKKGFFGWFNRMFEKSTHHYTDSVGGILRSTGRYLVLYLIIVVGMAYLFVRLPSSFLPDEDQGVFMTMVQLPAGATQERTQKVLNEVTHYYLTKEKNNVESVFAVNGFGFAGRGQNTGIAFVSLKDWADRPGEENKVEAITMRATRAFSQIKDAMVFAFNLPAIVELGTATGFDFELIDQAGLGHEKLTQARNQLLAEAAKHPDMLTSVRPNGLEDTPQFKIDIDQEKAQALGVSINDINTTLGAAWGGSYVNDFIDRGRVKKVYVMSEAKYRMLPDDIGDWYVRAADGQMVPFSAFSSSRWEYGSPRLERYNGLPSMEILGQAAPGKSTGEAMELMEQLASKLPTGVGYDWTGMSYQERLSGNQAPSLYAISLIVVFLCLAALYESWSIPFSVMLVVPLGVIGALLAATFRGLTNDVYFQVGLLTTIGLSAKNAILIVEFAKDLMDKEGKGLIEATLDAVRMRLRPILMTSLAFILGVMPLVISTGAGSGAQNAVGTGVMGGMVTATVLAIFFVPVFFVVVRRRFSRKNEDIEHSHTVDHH

T1 sequence (P31224 whole entry): as the sequence (P31224 whole entry G288D) above, with D288G counted along it

Compound: NC(N)=NCCC[C@H](NC(=O)[C@@H](N)Cc1ccccc1)C(=O)Nc1ccc2ccccc2c1 [PAβN, phenylalanine-arginine-β-naphthylamide] (HELM PEPTIDE1{F.R.[c1ccc2cc(N[*:1])ccc2c1]}$$$$V2.0)
- differential HDX-MS on purified AcrB WT (AcrB [1]): inhibitor binding led to HDX reduction throughout extensive parts of the PC1/PC2 cleft of the drug-binding pockets
- differential HDX-MS on purified AcrB G288D (AcrB [2]): Upon substrate binding, PAβN caused reduced HDX within the PC1/PC2 regions for AcrB^G288D
